Experimental data as given in patent US4100346A, “Certain 7(o-amino-methyl- or methylaminomethylphenyl- or cyclohexadienyl- or thienylacetamide)-3[1-carboxymethyl-(or ethyl- or propyl-)-tetrazol-5-ylthiomethyl]-3-cephem-4-carboxylic acids” (Bristol-Myers Company, priority 1976, dated 1978).
Values after ≈ are worked out from the molar mass of the structure shown. Like-named read-outs stand apart in the source and are kept apart here.

Assays:
[1] = system: Bordetella bronchiseptica; test: Growth inhibitory activity, antibiotic dilution technique; details: read-out: Minimum inhibitory concentration
[2] = system: Enterobacter aerogenes; test: Effect of inoculum size on susceptibility of Enterobacteriaceae; details: Klebsiella aerogenes, read-out: Minimum Inhibitory Concentration, Enterobacter aerogenes strain 1
[3] = system: Proteus rettgeri; test: Growth inhibitory activity, antibiotic dilution technique
[4] = system: Pseudomonas aeruginosa; test: as above; details: read-out: Minimum inhibitory concentration
[5] = system: Bacteroides Fragilis; test: Growth inhibitory activity, antibiotic dilution technique (obligate anaerobes); assay type: cell-based; details: 3 strains, geometric mean when applicable, read-out: Minimum inhibitory concentration
Protocol: (§1) Antibiotic spectrum. […] Procedures were as follows:
c. Obligate anaerobes. The assay was performed on solid medium, consisting of Brain Heart Infusion Broth (BBL) supplemented with 5% defibrinated sheep blood and 1% Ionagar (Colab). […] The plates were incubated at 37° C. for 48 hours under the oxygen-free conditions attained with a Gas-Pak (BBL) Brewer jar system.

[6] = system: Proteus rettgeri; test: Effect of inoculum size on susceptibility of Enterobacteriaceae; details: Providencia rettgeri
[7] = system: Enterobacter cloacae; test: as above
[8] = system: Providencia stuartii; test: Growth inhibitory activity, antibiotic dilution technique
[9] = system: Listeria monocytogenes; test: as above; details: read-out: Minimum inhibitory concentration
[10] = system: Neisseria gonorrhoeae; test: as above
[11] = system: Vibrio cholerae; test: as above; details: read-out: Minimum inhibitory concentration
[12] = system: Citrobacter sp.; test: as above
[13] = system: Streptococcus pyogenes; test: Intramuscular treatment of systemically infected mice; assay type: in vivo; details: im, 3.5 h, read-out: PD50 /treatment
Excerpt: (§2) Treatment of Systemically Infected Mice. The procedures were identical with those published previously [Leitner et al., BL-S640, a Cephalosporin With a Broad Spectrum of Antibacterial Activity: Bioavailability and Therapeutic Properties in Rodents, Antimicrob. Agents Chemother. 7:306-310, (1975)], except that:
(§3) (a) the hog gastric mucin used in infections with Staphylococcus aureus No. 2 was purchased from American Laboratories, Inc., Omaha, Neb. (lot No. 154163) and b) that the medium used to suspend all other organisms contained 3% (rather than 4%) hog gastric mucin (type 1701W, Wilson Laboratories, Inc., Park Forest South, Ill.).
(§4) *Animals infected with penicillinase-producing staphyloccal strains (No.
(§5) and 3) were treated 0 and 2 hours after infection; the others were treate
(§6) 1 and 3.5 hours after infection.

[14] = system: Streptococcus pneumoniae; test: as above; assay type: in vivo; details: im, 3.5 h, read-out: PD50 /treatment
Excerpt: as §2, §3, §4, §5, §6

[15] = system: Staphylococcus aureus; test: as above; assay type: in vivo; details: im, read-out: PD50 /treatment
Excerpt: as §2, §3, §4, §5, §6

[16] = system: Clostridium sp.; test: microbe, parasite or virus in culture; assay type: cell-based; details: read-out: Minimum inhibitory concentration
Protocol: as §1
c. Obligate anaerobes. The assay was performed on solid medium, consisting of Brain Heart Infusion Broth (BBL) supplemented with 5% defibrinated sheep blood and 1% Ionagar (Colab).

[17] = in vitro; assay type: in vitro ADME, human; details: human, serum; read-out: protein bound (converted)
[18] = system: Enterobacter cloacae; test: Intramuscular treatment of systemically infected mice; assay type: in vivo; details: im
Excerpt: Treatment of Systemically Infected Mice. The procedures were identical with those published previously [Leitner et al., BL-S640, a Cephalosporin With a Broad Spectrum of Antibacterial Activity: Bioavailability and Therapeutic Properties in Rodents, Antimicrob. Agents Chemother.
(a) the hog gastric mucin used in infections with Staphylococcus aureus No. 2 was purchased from American Laboratories, Inc., Omaha, Neb.

[19] = biological target: staphylococcal β-lactamase, Staphylococcus aureus A9606 (Staphylococcus aureus, UniProt P00807); test: Hydrolysis by β-lactamase in cell-free extracts; assay type: biochemical; details: cell-free extract
Chain of staphylococcal β-lactamase, Staphylococcus aureus A9606 (P00807 25-281): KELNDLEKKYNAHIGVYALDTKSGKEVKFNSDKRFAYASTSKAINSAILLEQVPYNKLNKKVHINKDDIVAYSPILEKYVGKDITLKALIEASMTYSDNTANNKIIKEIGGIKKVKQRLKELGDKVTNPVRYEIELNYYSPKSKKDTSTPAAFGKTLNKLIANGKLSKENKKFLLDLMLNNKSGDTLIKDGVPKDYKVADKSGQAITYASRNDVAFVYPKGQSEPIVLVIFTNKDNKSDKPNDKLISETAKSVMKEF
Protocol: Miscellaneous. Methods for determining bactericidal activity and susceptibility to cell-free β-lactamase were those previously used; Leitner et al., BL-S640, A Cephalosporin With a Broad Spectrum of Antibacterial Activity: Properties in vitro, Antimicrob. Agents Chemother. 7:298-305 (1975).
Susceptibility to β-lactamase. Susceptibility to enzymic hydrolysis was assessed by determining relative rates of hydrolysis by cell-free preparations of various β-lactamases (Table 6). BL-S786 was slightly to markedly less susceptible than the other cephalosporins to hydrolysis by β-lactamases of Type Ia, Ib, IIIa and IVa. All cephalosporins were poor substrates for Type IIa and staphylococcal β-lactamases. The four cephalosporins were hydrolyzed at similar rates by the Type IVb enzyme.

[20] = system: Haemophilus influenzae; test: Growth inhibitory activity, antibiotic dilution technique; details: including 9 ampicillin-resistant strains
[21] = read-out: Minimum Inhibitory Concentration, Proteus rettgeri strain 1, A, Inoculum of 10^2 organisms
[22] = read-out: Minimum Inhibitory Concentration, Proteus rettgeri strain 1, B, Inoculum of 10^6 organisms
[23] = read-out: Minimum Inhibitory Concentration, Proteus rettgeri strain 2, A, Inoculum of 10^2 organisms
[24] = read-out: Minimum Inhibitory Concentration, Proteus rettgeri strain 2, B, Inoculum of 10^6 organisms
[25] = read-out: Minimum Inhibitory Concentration, Proteus rettgeri strain 3, A, Inoculum of 10^2 organisms
[26] = read-out: Minimum Inhibitory Concentration, Proteus rettgeri strain 3, B, Inoculum of 10^6 organisms
[27] = read-out: Minimum Inhibitory Concentration, Enterobacter cloacae strain 1, A, Inoculum of 10^2 organisms
[28] = read-out: Minimum Inhibitory Concentration, Enterobacter cloacae strain 1, B, Inoculum of 10^6 organisms
[29] = read-out: Minimum Inhibitory Concentration, Enterobacter cloacae strain 2, A, Inoculum of 10^2 organisms
[30] = read-out: Minimum Inhibitory Concentration, Enterobacter cloacae strain 2, B, Inoculum of 10^6 organisms
[31] = read-out: Minimum Inhibitory Concentration, Enterobacter cloacae strain 3, A, Inoculum of 10^2 organisms
[32] = read-out: Minimum Inhibitory Concentration, Enterobacter cloacae strain 3, B, Inoculum of 10^6 organisms
[33] = read-out: Minimum Inhibitory Concentration, Enterobacter cloacae strain 4, A, Inoculum of 10^2 organisms
[34] = read-out: Minimum Inhibitory Concentration, Enterobacter cloacae strain 4, B, Inoculum of 10^6 organisms
[35] = read-out: Minimum Inhibitory Concentration, Enterobacter cloacae strain 5, A, Inoculum of 10^2 organisms
[36] = read-out: Minimum Inhibitory Concentration, Enterobacter cloacae strain 5, B, Inoculum of 10^6 organisms
[37] = read-out: Minimum inhibitory concentration, Citrobacter sp., 1 strain
[38] = Streptococcus pyogenes strain 1, challenge 2 × 10^3 -6 × 10^3, treated 1 and 3.5 hours after infection
[39] = Streptococcus pyogenes strain 2, challenge 1 × 10^4 - 5 × 10^4, treated 1 and 3.5 hours after infection
[40] = Streptococcus pneumoniae strain 1, challenge 2 × 10^3 - 9 × 10^3, treated 1 and 3.5 hours after infection
[41] = Streptococcus pneumoniae strain 2, challenge 1 × 10^4 - 3 × 10^4, treated 1 and 3.5 hours after infection
[42] = 3.5 h, Staphylococcus aureus strain 1, challenge 2 × 10^5 - 3 × 10^5, treated 1 and 3.5 hours after infection
[43] = Staphylococcus aureus strain 2 (penicillinase-producing), challenge 1 × 10^9, treated 0 and 2 hours after infection
[44] = Staphylococcus aureus strain 3 (penicillinase-producing), challenge 5 × 10^8 - 7 × 10^9, treated 0 and 2 hours after infection

Structure (SMILES)	MIC [1]	MIC ([2]; A, Inoculum of 10^2 organisms)	MIC ([2]; B, Inoculum of 10^6 organisms)	MIC [4]	MIC [5]	MIC [6, 21]	MIC [6, 22]	MIC [6, 23]	MIC [6, 24]	MIC [6, 25]	MIC [6, 26]	MIC [7, 27]	MIC [7, 28]	MIC [7, 29]	MIC [7, 30]	MIC [7, 31]	MIC [7, 32]	MIC [7, 33]	MIC [7, 34]	MIC [7, 35]	also measured
Cc1nnc(SCC2=C(C(=O)O)N3C(=O)[C@@H](NC(=O)Cn4cnnn4)[C@H]3SC2)s1 [Cefazolin]	125 µg/mL (≈ 275 µM)	16 µg/mL (≈ 35.2 µM)	> 250 µg/mL	> 125 µg/mL	50 µg/mL (≈ 110 µM)	0.5 µg/mL (≈ 1.1 µM)	> 250 µg/mL	0.25 µg/mL (≈ 0.55 µM)	> 250 µg/mL	2 µg/mL (≈ 4.4 µM)	> 250 µg/mL	2 µg/mL (≈ 4.4 µM)	> 250 µg/mL	32 µg/mL (≈ 70.4 µM)	> 250 µg/mL	8 µg/mL (≈ 17.6 µM)	250 µg/mL (≈ 550 µM)	63 µg/mL (≈ 139 µM)	> 250 µg/mL	8 µg/mL (≈ 17.6 µM)	inhibition at 16 µg/mL ([3]; Providencia rettgeri, read-out: percent of strains inhibited): 44%; MIC [7, 36]: > 250 µg/mL; inhibition at 16 µg/mL ([8]; Providencia stuartii, read-out: percent of strains inhibited): 23%; MIC [9]: 1.2 µg/mL (≈ 2.64 µM); susceptibility of Neisseria gonorrhoeae [10]: equally susceptible; MIC [11]: 4 µg/mL (≈ 8.8 µM); MIC ([12]; read-out: Minimum inhibitory concentration): 75 µg/mL (≈ 165 µM); MIC [12, 37]: > 125 µg/mL; ED50 [13, 38]: 0.57 mg/kg; ED50 [13, 39]: 0.27 mg/kg; ED50 [14, 40]: 0.39 mg/kg; ED50 [14, 41]: 0.57 mg/kg; ED50 [15, 42]: 0.09 mg/kg; ED50 [15, 43]: 5 mg/kg; ED50 [15, 44]: 23 mg/kg
O=C(Cc1cccs1)N[C@@H]1C(=O)N2C(C(=O)[O-])=C(C[n+]3ccccc3)CS[C@H]12 [Cephaloridine]	32 µg/mL (≈ 77 µM)	63 µg/mL (≈ 152 µM)	> 250 µg/mL	> 125 µg/mL	79 µg/mL (≈ 190 µM)	4 µg/mL (≈ 9.63 µM)	250 µg/mL (≈ 602 µM)	0.25 µg/mL (≈ 0.602 µM)	> 250 µg/mL	16 µg/mL (≈ 38.5 µM)	> 250 µg/mL	4 µg/mL (≈ 9.63 µM)	> 250 µg/mL	125 µg/mL (≈ 301 µM)	> 250 µg/mL	16 µg/mL (≈ 38.5 µM)	250 µg/mL (≈ 602 µM)	> 250 µg/mL	> 250 µg/mL	63 µg/mL (≈ 152 µM)	percent of strains inhibited [3]: negligible; MIC [16]: 0.63 µg/mL (≈ 1.52 µM); fraction unbound [17]: 0.7; ED50 ([18]; Enterobacter cloacae, 3.5 h, read-out: PD50 /treatment): 200 mg/kg; PD50 /treatment ([18]; mouse, in vivo): > 400 mg/kg; MIC [7, 36]: > 250 µg/mL; percent of strains inhibited [8]: negligible; Relative Rate of Hydrolysis (benzylpenicillin = 100) [19]: < 0.5; MIC [9]: 0.91 µg/mL (≈ 2.19 µM); relative activity against Haemophilus influenzae [20]: about equally active; MIC [11]: 16 µg/mL (≈ 38.5 µM); MIC [12, 37]: > 125 µg/mL; MIC ([12]; read-out: Minimum inhibitory concentration, Citrobacter sp., 4 strains, geometric mean when applicable): > 125 µg/mL; ED50 [13, 38]: 0.06 mg/kg; ED50 [13, 39]: 0.02 mg/kg; ED50 [14, 40]: 0.1 mg/kg; ED50 [14, 41]: 0.26 mg/kg; ED50 [15, 42]: 0.01 mg/kg; ED50 [15, 43]: 3.2 mg/kg; ED50 [15, 44]: 3.3 mg/kg
